How the values were obtained:
[1] = tested on: woody shrubs and mixed grasses; conditions: general statement, no source given; cited from earlier work
[2] = tested on: Capsicum annuum Capistrano pepper plants; assay: Pepper harvest data, field trial; assay type: in vivo
Procedure: (§1) Field studies were conducted at the University of Florida, Southwest Florida Research and Education Center, Immokalee, Fla. For pepper trials, average monthly high and low temperatures were 98° F. and 70° F. in month one; 94° F. and 63° F. in month two; and 94° F. and 51° F. in month three; rainfall totaled 11.02, 0.95, and 2.41 inches for the same monthly periods, respectively. For squash trials, average monthly high and low temperatures were 93° F. and 45° F. in month one; 96° F. and 55° F. in month two; and 96° F. and 55° F. in month three; rainfall totaled 2.00, 3.35, and 5.59 inches for the same monthly periods, respectively.
(§2) In all trials, seedlings were transplanted into Immokalee fine sand on day 0. Treatments were arranged in a complete randomized block treatment design with four replicates. For pepper trials, ‘Capistrano’ seedlings were arranged in plots comprising 10 plants in a single row spaced 10 inches apart within a 36 inch wide row with 5 feet between each plot and 12 feet center to center between rows. For squash trials, four week old ‘Dixie’ plants were arranged in plots comprising eight plants spaced 3 feet apart with a 27 foot row and with 10 feet between each plot.
(§3) Each treatment formulation was spray applied. For pepper trials, treatment formulations were applied using a backpack CO2 sprayer at 40 psi with a single hollow-cone nozzle at 30 gal/A. Silicon was applied as sodium metasilicate nonahydrate (Na2SiO3.9H2O). For squash trials, treatment formulations were applied with a high clearance sprayer 2 mph and at 200 psi. A double drop boom equipped with six nozzles delivered a spray volume of 90 gal/A for tomato plants or 80 gal/A for squash plants.
(§4) For each trial, disease severity was assessed by visually estimating the percentage of foliage with symptoms of disease. For pepper trials, plants were examined for symptoms of bacterial spot. For squash trials, plants were examined for powdery mildew. The area under the disease progress curve (AUDPC) was calculated from disease severity ratings. In some trials, fruit was harvested and evaluated for the amount of marketable fruit produced per plot. Data were analyzed within the statistical program of ARM 9.1 (pepper trials) or ARM 9.0 (tomato and squash trials) by ANOVA and means separated by LSD.
Fruit was harvested on days 61 and 83.

[3] = tested on: bacterial spot (Xanthomonas euvesicatoria) on pepper; assay: Bacterial spot on pepper, field trial (disease severity, AUDPC); assay type: in vivo
Procedure: as §1, §2, §3
For pepper trials, a suspension of inoculum of bacterial spot containing strains of several races was applied at day 22 and new inoculum was introduced periodically throughout the remainder of the trial.
as §4
Transplanted Capsicum annuum ‘Capistrano’ pepper seedlings were grouped into one of six treatment groups. Group one was an untreated control. The remaining five groups were spray treated with formulations that differed in their chemical compositions (Table 7).
plants on days 14, 21, 28, 35, 42, 49, 56, 64, 71, 77, and 84. Plants were inoculated with a bacterial suspension (Xanthomonas euvesicatoria) on day 22 and periodically throughout the remainder of the trial. […]

[4] = sprays A-K, rates as in Table 7

Row | Structure (SMILES) | time normally required to begin to see an effect on grassy plants [1] | Marketable Fruit in Pound per Plot ([2]; Day 61) [a Pound per Plot] | Number of Marketable Fruit per Plot ([2]; Day 61) [a per Plot] | Marketable Number of Fruit per Plot ([2]; Day 83) [a per Plot] | Marketable fruit weight per plot ([2]; Day 83) [a Pound per Plot] | Non-Marketable Fruit in Pound per Plot ([2]; Day 83) [a Pound per Plot] | Non-Marketable Fruit per Plot ([2]; Day 83) [ab per Plot] | AUDPC (area under the disease progress curve) ([3]; calculated from disease severity ratings) [ab] | Disease Severity Day 41 ([3]; sprays A-K (Day 14-84), rates as in Table 7, inoculated day 22) | Disease Severity Day 47 [3, 4] | Disease Severity Day 58 [3, 4] | Disease Severity Day 61 [3, 4] | Disease Severity Day 71 [3, 4]
1 | CC(C)C1(C)N=C(c2ncccc2C(=O)O)NC1=O (stereo not shown) [Imazapyr] | 2-5 months | – | – | – | – | – | – | – | – | – | – | – | –
2 | O.O.O.O.O.O.O.O.O.O=[Si]([O-])[O-].[Na+].[Na+] [Silicon, sodium metasilicate nonahydrate] | – | 2.9 | 12 | 26.3 | 7.38 | 0.35 | 1 | 518.42 | 10.3 a percentage of symptomatic foliage | 21.5 a percentage of symptomatic foliage | 21.3 ab percentage of symptomatic foliage | 15 ab percentage of symptomatic foliage | 22.5 ab percentage of symptomatic foliage
